Here are results for two compounds from patent US20090012009A1, “Composition and Method for Treating Inflammatory Disease” (priority 2007, published 2009).

Assay [1] has as its system arthritic rats. Nature of the assay: Arthritis scores, adjuvant-induced arthritis in rats. Particulars: i.p. 5×/week; scale 0-4, scored 2×/week. The format is in vivo, rat. The procedure:
(§1) Experimental adjuvant-induced arthritis was induced according to a previously described method (Paulos et al., 2006; van Eden et al., 1996). Briefly, adjuvant was prepared by adding finely ground heat-killed Mycobacterium butyricum(Difco Laboratories, MI, USA) in mineral oil (Sigma-Aldrich, MO, USA) at a final concentration of 1 mg/ml. The adjuvant was kept under constant stirring to ensure homogenous distribution of the mycobacterial particles. Immunized rats were anesthetized with ketamine and xylazine (100 mg/kg and 13 mg/kg, respectively) and injected in the right hind paw with 100 μl of the mycobacterial suspension. Paw inflammation was monitored daily until the first symptoms of RA appeared on the left, non-injected hind paw. […]
(§2) To compare the efficacies of the various folate-hapten conjugates in treating RA, arthritic rats were injected i.p. 5×/week with either: 1) vehicle alone (PBS), 2) 100 nmol/kg of folate-FITC, 3) 30 nmol/kg folate-DNP1, 4) 200 nmol/kg folate-DNP1, 5) 30 nmol/kg folate-DNP2, 6) 200 nmol/kg folate-DNP2, 7) 30 nmol/kg folate-DNP3, 8) 200 nmol/kg folate-DNP3, 9) 30 nmol/kg folate-TNP, or 10) 200 nmol/kg folate-TNP. Paw volumes, arthritis scores, spleen enlargement, bone degradation, and the biodistribution of FR+macrophages were then quantitated as a function of time during therapy, as described below. […]

The subject of assay [2] is arthritic rats. Particulars: previous dosing studies; cited from earlier work.
The target in assay [3] is T1, hFR-β (Homo sapiens, UniProt P14207).
T1 construct: expressed in transfected cells; host or cells: CHO-β cells (CHO cells expressing hFR-β)
In words: Relative binding affinity of folate-hapten conjugates, displacement of 3H-folic acid from CHO-β cells. Particulars: 10 nM 3H-folic acid. As to the method: The relative binding affinities of folate-hapten conjugates to hFR-β were examined using a previously described method (Reddy et al., 2004). CHO-β cells expressing hFR-β were seeded on 48-well plates at 70% confluence and cultured at 37° C. in folate-deficient RPMI1640 medium (Invitrogen, CA, USA) supplemented with 1× penicillin/streptomycin (Gibco, Calif., USA) and 10% fetal bovine serum (FBS) (Atlanta Biologicals, GA, USA) in a 5% CO2 humidified incubator. Twenty-four hours later, cells were washed twice with PBS (pH 7.4), after which a 10 nM solution of ^3H-folic acid (GE Healthcare, NJ, USA) was added with increasing concentrations (10^−10M to 10^−5M) of either folate-FITC, folate-DNP1, folate-DNP2, folate-DNP3, or folate-TNP in cell culture medium. Cells were incubated at 37° C. for 1 h and washed 3× with 0.5 ml PBS. 0.5 ml of 1.0% sodium dodecyl sulfate (SDS) in PBS was added to each well, and after 5 min, cell lysates were collected and transferred to vials containing scintillation cocktail and counted for radioactivity. Relative binding affinity was defined as the molar ratio required for displacement of 50% of bound ^3H-folic acid from the cell surface.
(Loss of bound radioactivity is the signal in a displacement assay; it reports binding, not function.)

Assay [4] relates to arthritic rats. In words: Paw volumes of non-injected hind paws, adjuvant-induced arthritis in rats. Particulars: i.p. 5×/week, 30 or 200 nmol/kg (folate-FITC 100 nmol/kg). The format is in vivo, rat. The procedure: as §1, §2
Assay [5] relates to FR-β+ activated macrophages. Nature of the assay: 99mTc-EC20 biodistribution in spleens and livers of arthritic rats. Format: in vivo, rat. To be noted: 4 h after i.p. 99mTc-EC20 (67 nmol/kg); versus PBS-treated group. As to the method: To compare the efficacies of the various folate-hapten conjugates in treating RA, arthritic rats were injected i.p. 5×/week with either: 1) vehicle alone (PBS), 2) 100 nmol/kg of folate-FITC, 3) 30 nmol/kg folate-DNP1, 4) 200 nmol/kg folate-DNP1, 5) 30 nmol/kg folate-DNP2, 6) 200 nmol/kg folate-DNP2, 7) 30 nmol/kg folate-DNP3, 8) 200 nmol/kg folate-DNP3, 9) 30 nmol/kg folate-TNP, or 10) 200 nmol/kg folate-TNP. Paw volumes, arthritis scores, spleen enlargement, bone degradation, and the biodistribution of FR+macrophages were then quantitated as a function of time during therapy, as described below.
Paw volumes were measured 2×/week by multiplying length, height, and width of the non-injected hind paw (Paulos et al., 2006). […] Spleen enlargement was assessed 25 days after initial treatment by euthanizing the animal and measuring the weight of the resected organs. Bone degradation of the non-injected hind paw was evaluated by x-ray radiography in one representative rat from each hapten group treated at 200 nmol/kg folate-hapten conjugate. The biodistribution of FR+ macrophages in each treatment group was also quantified using the FR-targeted radioimaging agent, ^99mTc-EC20, which was prepared as described previously (Turk et al., 2002). Briefly, each rat was injected i.p. with 500 μCi of radioactivity at a dose of 67 nmol/kg of EC20. […]

T1 sequence (P14207 17-230): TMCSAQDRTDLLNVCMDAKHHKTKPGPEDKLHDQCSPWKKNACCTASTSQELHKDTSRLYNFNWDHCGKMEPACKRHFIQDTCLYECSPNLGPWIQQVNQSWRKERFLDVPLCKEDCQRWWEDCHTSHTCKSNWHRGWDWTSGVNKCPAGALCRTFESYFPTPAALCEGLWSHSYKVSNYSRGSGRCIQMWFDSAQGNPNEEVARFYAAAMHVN

For the compound `Nc1nc2ncc(CNc3ccc(C(=O)NC(CCC(=O)NCCNC(=S)Nc4ccc(C(=O)O)c(-c5c6ccc(=O)cc-6oc6cc(O)ccc56)c4)C(=O)O)cc3)nc2c(=O)[nH]1` (stereo not shown) [folate-FITC, reference compound], the “relative potencies in preventing the increase in arthritis score” value in assay [1] is “TNP=FITC>DNP1>DNP2>DNP3”. In assay [2], the “daily dose giving optimal responses” value is 100 nmol/kg. Further, the “rank order of binding affinity of the folate-hapten conjugates” value in assay [3] is given as “folate-DNP3>folate-DNP2>folate-DNP 1>folate-TNP>folate-FITC”.

On to `Nc1nc2ncc(CNc3ccc(C(=O)N[C@H](CCC(=O)N[C@H](CCCCNc4c([N+](=O)[O-])cc([N+](=O)[O-])cc4[N+](=O)[O-])C(=O)O)C(=O)O)cc3)nc2c(=O)[nH]1` [folate-TNP], for which, in assay [4], the “paw swelling (volume changes in non-injected hind paws)” value is on record as “more effective than any of the folate-DNP conjugates, but similar in potency to folate-FITC”. Besides, the “relative potencies in preventing the increase in arthritis score” value in assay [1] was “TNP=FITC>DNP1>DNP2>DNP3”. Moreover, in assay [5], the “uptake of 99mTc-EC20 in spleens and livers” value was “folate-DNP1 and folate-DNP2 appeared to be superior”. Further, in assay [3], the “rank order of binding affinity of the folate-hapten conjugates” value is recorded as “folate-DNP3>folate-DNP2>folate-DNP 1>folate-TNP>folate-FITC”.
